Results as given in US8785422B2, “A-ring modified 19-nor-vitamin D analogs and their uses” (Wisconsin Alumni Research Foundation, priority 2012, dated 2014).
“Also recorded” adds a separate entry of the source.

How the values were obtained:
[1] = system: Human promyelocyte leukemia (HL60) cells; assay: HL-60 differentiation (nitro blue tetrazolium reduction); format: cell-based; settings: four days, FIG. 2
Procedure: The study drugs were dissolved in ethanol and the concentrations determined using UV spectrophotometry. Serial dilutions were prepared so that a range of drug concentrations could be tested without changing the final concentration of ethanol (≦0.2%) present in the cell cultures.
Human promyelocyte leukemia (HL60) cells were grown in RPMI-1640 medium containing 10% fetal bovine serum. The cells were incubated at 37° C. in the presence of 5% CO2.
HL60 cells were plated at 1.2×10^5 cells/ml. Eighteen hours after plating, cells in duplicate were treated with drug. Four days later, the cells were harvested and a nitro blue tetrazolium reduction assay was performed. (See Collins et al., 1979: J. Exp. Med. 149:969-974), The percentage of differentiated cells was determined by counting a total of 200 cells and recording the number that, contained intracellular black-blue formazan deposits. Verification of differentiation to monocytic cells was determined by measuring phagocytic activity.

[2] = system: bone calcium mobilization; assay: Bone calcium mobilization (serum calcium) in vitamin D-deficient rats; format: in vivo, Sprague-Dawley rats; settings: low calcium diet (0.02%), ip once daily for 4 consecutive days, DA2HE up to 35100 pmol/day, FIG. 4
Text: (§1) Intestinal Calcium Transport and Bone Calcium Mobilization Male, weanling Sprague-Dawley rats were placed on Diet 11 (see Suda et al., J. Nutr. 100:1049, 1970) (0.47% Ca)+vitamins AEK for one week followed by Diet 11 (0.02% Ca)+vitamins AEK for 3 weeks. The rats were then switched to the same diet containing 0.47% Ca for one week followed by two weeks on the same diet containing 0.02% Ca. Dose administration began during the last week on 0.02% calcium diet. Four consecutive ip doses were given approximately 24 hours apart. Twenty-four hours after the last dose, blood was collected from the severed neck and the concentration of serum calcium determined by atomic absorption spectrometry as a measure of bone calcium mobilization. The first 10 cm of the intestine was also collected for intestinal calcium transport analysis using the everted gut sac method.

[3] = system: 24-hydroxylase (24 Ohase) gene promoter upstream of a luciferase reporter gene in ROS 1.7/2.8 (bone) cells; assay: In vitro transcription assay (luciferase reporter); format: cell-based; settings: 24-hydroxylase promoter luciferase, sixteen hours after dosing; FIG. 3; read-out: EC50, stimulation of gene transcription in bone cells
Procedure: In Vitro Transcription Assay.
Transcription activity was measured in ROS 1.7/2.8 (bone) cells that were stably transfected with a 24-hydroxylase (24 Ohase) gene promoter upstream of a luciferase reporter gene. (See Arbour et al., 1998). Cells were given a range of doses. Sixteen hours after dosing the cells were harvested and luciferase activities were measured using a luminometer. RLU=relative luciferase units.

[4] = molecular target: T1, full-length recombinant rat vitamin D receptor (Rattus norvegicus, UniProt P13053); assay: Vitamin D receptor binding, competition with [3H]-1,25(OH)2D3; settings: FIG. 1
T1 construct: Full-length recombinant rat receptor was expressed in E. coli BL21 (DE3) Codon Plus RIL cells; histidine tag (C); made in house; host or cells: E. coli BL21 (DE3) Codon Plus RIL
T1 sequence (P13053 1-423): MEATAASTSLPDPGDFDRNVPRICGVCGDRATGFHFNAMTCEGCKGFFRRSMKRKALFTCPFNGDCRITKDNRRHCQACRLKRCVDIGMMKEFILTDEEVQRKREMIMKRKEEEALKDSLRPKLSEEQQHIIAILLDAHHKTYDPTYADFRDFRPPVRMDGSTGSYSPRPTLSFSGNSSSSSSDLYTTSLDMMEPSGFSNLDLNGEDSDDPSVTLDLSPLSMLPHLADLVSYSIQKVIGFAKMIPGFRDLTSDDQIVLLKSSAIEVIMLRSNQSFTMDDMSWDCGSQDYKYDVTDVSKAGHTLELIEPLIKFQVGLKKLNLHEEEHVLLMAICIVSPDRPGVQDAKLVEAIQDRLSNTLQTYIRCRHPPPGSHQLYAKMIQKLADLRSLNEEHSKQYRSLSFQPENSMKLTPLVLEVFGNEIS
Text: Vitamin D Receptor Binding
Full-length recombinant rat receptor was expressed in E. coli BL21 (DE3) Codon Plus RIL cells and purified to homogeneity using two different column chromatography systems. The first system was a nickel affinity resin that utilizes the C-terminal histidine tag on this protein. The protein that was eluted from this resin was further purified using ion exchange chromatography (S-Sepharose Fast Flow). Aliquots of the purified protein were quick frozen in liquid nitrogen and stored at −80° C. until use. For use in binding assays, the protein was diluted in TEDK50 (50 mM Tris, 1.5 mM EDTA, pH 7.4, 5 mM DTT, 150 mM KCI) with 0.1% Chaps detergent. The receptor protein and ligand concentration was optimized such that no more than 20% of the added radiolabeled ligand was bound to the receptor.
Assay Conditions. Radiolabeled and unlabeled ligands were added to 100 mcl of the diluted protein at a final ethanol concentration of ≦10%, mixed and incubated overnight on ice to reach binding equilibrium. The following day, 100 mcl of hydroxylapatite slurry (50%) was added to each tube and mixed at 10-minute intervals for 30 minutes. The hydroxylapaptite was collected by centrifugation and then washed three times with Tris-EDTA buffer (50 mM Tris, 1.5 mM EDTA, phi 7.4) containing 0.5% Triton X-100. After the final wash, the pellets were transferred to scintillation vials containing 4 ml of Biosafe II scintillation cocktail, mixed and placed in a scintillation counter. Total binding was determined from the tubes containing only radiolabeled ligand.

[5] = system: intestinal calcium transport; assay: Intestinal calcium transport (everted gut sac) in vitamin D-deficient rats; format: in vivo, Sprague-Dawley rats; settings: 4 consecutive ip doses, FIG. 5
Text: as §1

EC50 ([1]; Homo sapiens, HL-60, 96 h)	VDR binding activity relative to 1α,25-dihydroxyvitamin D3 ([4]; compared to natural hormone)	Ki ([4]; full-length recombinant rat vitamin D receptor, read-out: Ki, competition with [3H]-1,25(OH)2D3 for binding to VDR)	VDR binding activity relative to standard 1α,25-(OH)2D3, in log ([4]; less activity than standard)	Structure (SMILES)	EC50 [1]	bone calcium mobilization activity (serum calcium) [2]	EC50 [3]	potency in promoting active calcium transport across the gut relative to 1α,25(OH)2D3 [5]	intestinal calcium transport activity ([5]; low calcium diet (0.02%), everted gut sac)
–	–	–	–	C=C1/C(=C\C=C2/CCC[C@]3(C)[C@@H]([C@H](C)CCCC(C)(C)O)CC[C@@H]23)C[C@@H](O)C[C@@H]1O [1α,25-dihydroxyvitamin D3, reference compound]	3 nM	increased serum calcium levels	0.08 nM	–	–
300 nM	about 10 times less activity	0.4 nM	about one	C[C@H](CCCC(C)(C)O)C1CCC2/C(=C/C=C(CCO)CCO)CCC[C@@]21C (some centres unmarked) [DA2HE, seco-A-2,19-dinor-1,25-dihydroxyvitamin D3]	–	lacks any bone calcium mobilization activity; also recorded: no mobilization of bone calcium	40 nM	about 10 times less potent	relatively high intestinal calcium transport activity which increases in a dose dependent manner
